Experiments:
Kunming mice [1] = assay: Mouse writhing test (acetic acid); format: in vivo; conditions: 20 mg/kg ig for 4 days
Experimental: Kunming mice (18-22 g, male) were randomly divided into several groups with 20 animals in each group.
Control group: PEG400 was administered (ig) for 4 days, 0.1 ml/10 g body weight.
Test groups: CAI and its analogues (compounds with structural formula of A, R1═Cl or H, R2═Cl, H, Br, CH3 or CF3, R3═Cl, Br, CF3, NO2 or CN, X═O, S or C═O; The compounds are listed in Table 6 (A1˜A10)) were administered (ig) for 4 days (20 mg/kg body weight, 2 mg/ml).
The pain intensity test was carried out 8 hours after the last drug administration. 0.6% acetic acid (0.1 ml/10 g body weight) was injected (ip). The animals were put into a glass cylinder immediately. The writhing frequency in the following 5-15 minutes was recorded.

Wistar rats = assay: Adjuvant induced arthritis (AA) of rat, paw oedema; format: in vivo
Experimental: Negative control (AA+NS): […] positive control (AA+Dex): dexamethasone, i.p., 0.067 mg/kg/day. Vehicle control (AA+PEG400): […] CAI (AA+CAI): 20 mg/ml CAI, ig, 0.1 ml/100 g/day (20 mg/kg/day). Combination (AA+CAI+Dex): dexamethasone, 0.067 mg/kg/day (i.p.) plus CAI 20 mg/kg/day (p.o.). Normal volumes of left and right hind paw were measured before adjuvant injection. […]

TNF-α = TNF-α levels in paw tissue and serum of adjuvant arthritis rat (ELISA); format: in vivo; conditions: AA rats, day 29, ELISA
Experimental: (§1) Blood was collected from eve socket on day 29 and left in room temperature to allow coagulating. Then serum was separated by centrifugation at 3000 rpm for 10 min and kept in −20° C. After animals were sacrificed, the subcutaneous tissue of the right hind paw and that surrounding the tarsotibial joints was removed, broke into pieces, and placed in 5 ml normal saline (0.9%). The tissues were homogenized in a high speed homogenizer. Then the homogenate was centrifuged at 4° C. and 10,000 rpm for 15 min. The supernatants were collected and stored at −20° C. until further analysis.
(§2) IL-1β and TNF-α levels in paw tissue and serum were measured using specific rat ELISA kits according to the manufacturer's instructions.

IL-1β = IL-1β levels in paw tissue and serum of adjuvant arthritis rat (ELISA); format: in vivo; conditions: AA rats, day 29, ELISA
Experimental: as §1, with “The adjuvant arthritis rat was prepared as described in example 8. Treatment was performed as described in example 8. Blood” for “Blood”
as §2

Kunming mice [2] = assay: Radiant heat test (tail-flick); format: in vivo
Experimental: The radiant heat dolorimeter (Collumbus Instruments) is used in this model with the tail-flick mode and the exposure rate of 20. The latency periods (TFL) starting from the beginning of exposure to the tail-flick responses were recorded as the pain threshold. The exposure time lasted for 16 seconds.
Kunming mice (18-22 g, male) are tested for the basic pain threshold before the test with drug administration, and those with pain threshold longer than 16 seconds are excluded. The selected mice are divided into 4 groups with 15 animals per group.
(§3) Control group with dissolvent: 10 μl PEG400 was administered (ig) twice with the interval of 24 hours. The pain intensity test was carried out 8 hours after the second administration. 200 μl N.S. was injected (sc) 5 minutes before the test.
(§4) Morphine/PEG400 group: 10 μl PEG400 was administered (ig) twice with the interval of 24 hours. The pain intensity test was carried out 8 hours after the second administration. Morphine (2 mg/kg body weight) was injected (sc) 5 minutes before the test.
(§5) CAI/N.S. group: CAI (20 mg/kg body weight, 2 mg/ml) was administered (ig) twice with the interval of 24 hours. The pain intensity test was carried out 8 hours after the second administration. 200 μl N.S. was injected (sc) 5 minutes before the test.
The pain intensity test was carried out 8 hours after the second administration, morphine (2 mg/kg body weight) was injected (sc) 5 minutes before the test.
The pain threshold of each mouse was tested before and after morphine or N.S. injection. The values after drug administration minus those before drug administration were considered to be the changing index of pain threshold.

Kunming mice [3] = assay: Effect of CAI on drug addiction caused by morphine (naloxone-induced jumping); conditions: mouse, in vivo
Experimental: 160 Kunming mice (18-22 g, half male and half female) were divided into 4 groups randomly, with 40 mice per group:
Control group with solvent, PEG400/N.S. (10 μl/g/day PEG400, (ig), 4 days);
Group treated with CAI, CAI/N.S. (CAI is resolved in PEG400 to reach a final concentration of […], 20 mg CAI/kg/day was administered (ig) for 4 days, N.S. was taken according to morphine administration in table 1);
Group treated with morphine, PEG400/morphine (10 μl/g/day PEG400 was administered (ig) for 4 days, morphine was administered according to the table below);
4 hours after the morphine administration on the fifth day, animals of each group was injected (ip) with 1 mg/kg naloxone and then put into a tank (5000 ml) immediately. The jump frequency in 30 minutes was recorded. Two-factor analysis of variance by SPSS was performed to analyse the experiment results.

Kunming mice [4] = assay: Hot plate test (analgesic effect); format: in vivo
Experimental: Kunming mice (18-22 g, female) were randomly divided into 4 groups with 20 animals per group.
as §3, §4, §5
The pain intensity test was carried out 8 hours after the second administration. Morphine (2 mg/kg body weight) was injected (sc) 5 minutes before the test.
The mice were placed onto a hot plate (53±0.5° C.) and the latency periods (second) of hopping responses were recorded as the pain threshold index.

## NC(=O)c1nnn(Cc2cc(Cl)c(C(=O)c3ccc(Cl)cc3)c(Cl)c2)c1N [CAI, 5-amino-1-[3,5-dichloro-4-(4-chlorobenzoyl chloride)benzyl]-1H-1,2,3-triazole-4-carboxamide]
Kunming mice [1]
  Analgesic effect in writhing test (in words): obvious analgesic effect
Kunming mice [1]; 0.6% acetic acid ip, writhing in following 5-15 minutes
  Writhing frequency mean ± std: 8.1 ± 2.3
Wistar rats; 1 d, CAI 20 mg/kg/day ig, Dex 0.067 mg/kg/day i.p.
  Primary paw oedema (%), mean ± std: 116.2 ± 17.6 %
Wistar rats; 2 d
  Primary paw oedema (%), mean ± std: 131.9 ± 23.0 %
Wistar rats; 5 d
  Primary paw oedema (%), mean ± std: 122.4 ± 12.4 %
Wistar rats; 8 d
  Primary paw oedema (%), mean ± std: 121.6 ± 21.6 %
Wistar rats; 11 d
  Primary paw oedema (%), mean ± std: 129.3 ± 23.5 %
Wistar rats; 14 d
  Primary paw oedema (%), mean ± std: 112.0 ± 15.7 %
Wistar rats; 14 d, right hind paw
  Secondary paw oedema (%), mean ± std: 2.3 ± 1.0 %
Wistar rats; 17 d
  Primary paw oedema (%), mean ± std: 104.3 ± 20.7 %
  Secondary paw oedema (%), mean ± std: 3.1 ± 0.8%
Wistar rats; 20 d
  Primary paw oedema (%), mean ± std: 92.2 ± 16.0 %
  Secondary paw oedema (%), mean ± std: 8.8 ± 3.2 %
Wistar rats; 23 d
  Primary paw oedema (%), mean ± std: 92.4 ± 15.4 %
  Secondary paw oedema (%), mean ± std: 8.6 ± 2.3 %
Wistar rats; 26 d
  Primary paw oedema (%), mean ± std: 88.6 ± 13.4 %
  Secondary paw oedema (%), mean ± std: 8.6 ± 1.9 %
Wistar rats; 29 d
  Primary paw oedema (%), mean ± std: 86.9 ± 23.1 %
  Secondary paw oedema (%), mean ± std: 6.5 ± 2.7 %
Wistar rats; compared with control group, two-way ANOVA
  Effect on paw oedema of AA rats (in words): inhibits primary and secondary paw oedema
TNF-α
  TNF-α levels in paw tissue and serum (in words): significantly reduced
IL-1β
  IL-1β levels in paw tissue and serum (in words): significantly reduced
Kunming mice [2]; compared with the control group
  Analgesic effect in radiant heat test (in words): neither have obvious analgesic effect alone
Kunming mice [2]; tail-flick latency after minus before drug, CAI 20 mg/kg ig twice, morphine 2 mg/kg sc
  Pain threshold change (seconds, mean ± std): 2.56 ± 2.62 s
Kunming mice [3]
  Addiction / withdrawal syndrome (in words): does not cause addiction
Kunming mice [4]; hot plate 53±0.5° C., latency of hopping response, CAI 20 mg/kg ig twice, morphine 2 mg/kg sc
  Pain threshold (sec, mean ± std): 19.9 ± 6.2 s
Kunming mice [4]; two-factor ANOVA
  Analgesic effect in hot plate test (in words): neither have obvious analgesic effect alone

Source: patent US20100041632A1, “USES OF THE CARBOXY-AMIDO-TRIAZOLE COMPOUNDS AND SALTS THEREOF” (priority 2006, published 2010)
